Reference: paper PMC10557102 (Pharmacology Research & Perspectives, 2023)
Several values for one entry are separate records, joined by “and”; a condition that tells them apart may be missing. Equal entries are not always repeated. Where two headings read alike, the source gives them in different places.

Key:
CYP3A4 [1] = biological target: T1, CYP3A4 (Homo sapiens, UniProt P08684); assay: Cocktail DDI study: PK of midazolam and 1-OH midazolam with/without nivasorexant; details: for t max: median (range); for t max median difference B–A / t max median difference D–A: median difference (90% CI); for t ½ ratio Trt B/Trt A / t ½ ratio Trt D/Trt A / AUC0–24 ratio Trt B/Trt A / C max ratio Trt B/Trt A / AUC0–24 ratio Trt D/Trt A / C max ratio Trt D/Trt A: ratio of geometric means (90% CI); for AUC0–24 ratio Trt B/Trt A / C max ratio Trt B/Trt A: initial nivasorexant dose vs cocktail alone; for AUC0–24 ratio Trt D/Trt A / C max ratio Trt D/Trt A: nivasorexant steady state vs cocktail alone; for AUC(0-t) / half-life: both, human, plasma, oral; for half-life: t ½
T1 sequence (P08684 whole entry): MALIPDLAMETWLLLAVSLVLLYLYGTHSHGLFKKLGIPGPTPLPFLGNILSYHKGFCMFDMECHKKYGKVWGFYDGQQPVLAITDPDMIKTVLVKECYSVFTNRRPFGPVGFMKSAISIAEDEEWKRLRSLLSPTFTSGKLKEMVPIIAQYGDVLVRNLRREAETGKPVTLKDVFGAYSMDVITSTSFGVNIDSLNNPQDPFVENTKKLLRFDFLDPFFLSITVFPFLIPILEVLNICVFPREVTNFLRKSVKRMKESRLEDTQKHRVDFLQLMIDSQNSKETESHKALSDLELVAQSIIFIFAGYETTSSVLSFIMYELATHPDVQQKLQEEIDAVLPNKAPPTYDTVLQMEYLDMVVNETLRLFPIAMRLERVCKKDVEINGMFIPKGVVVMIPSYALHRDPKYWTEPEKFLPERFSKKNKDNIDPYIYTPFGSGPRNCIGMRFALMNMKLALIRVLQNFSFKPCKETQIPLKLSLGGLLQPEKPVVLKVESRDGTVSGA

CYP2C9 [2] = details: for t max: median (range); for t max median difference B–A / t max median difference D–A: median difference (90% CI); for t ½ ratio Trt B/Trt A / t ½ ratio Trt D/Trt A / AUC0–24 ratio Trt B/Trt A / C max ratio Trt B/Trt A / AUC0–24 ratio Trt D/Trt A / C max ratio Trt D/Trt A: ratio of geometric means (90% CI); for AUC0–24 ratio Trt B/Trt A / C max ratio Trt B/Trt A: initial nivasorexant dose vs cocktail alone; for AUC0–24 ratio Trt D/Trt A / C max ratio Trt D/Trt A: nivasorexant steady state vs cocktail alone; for half-life: t ½
CYP2C19 [3] = biological target: T2, CYP2C19 (Homo sapiens, UniProt P33261); details: for C max / AUC0–24 / t ½: geometric mean (95% CI); for t max: median (range); for t max median difference B–A / t max median difference D–A: median difference (90% CI); for AUC0–24 ratio Trt B/Trt A / C max ratio Trt B/Trt A: initial nivasorexant dose vs cocktail alone
T2 sequence (P33261 whole entry): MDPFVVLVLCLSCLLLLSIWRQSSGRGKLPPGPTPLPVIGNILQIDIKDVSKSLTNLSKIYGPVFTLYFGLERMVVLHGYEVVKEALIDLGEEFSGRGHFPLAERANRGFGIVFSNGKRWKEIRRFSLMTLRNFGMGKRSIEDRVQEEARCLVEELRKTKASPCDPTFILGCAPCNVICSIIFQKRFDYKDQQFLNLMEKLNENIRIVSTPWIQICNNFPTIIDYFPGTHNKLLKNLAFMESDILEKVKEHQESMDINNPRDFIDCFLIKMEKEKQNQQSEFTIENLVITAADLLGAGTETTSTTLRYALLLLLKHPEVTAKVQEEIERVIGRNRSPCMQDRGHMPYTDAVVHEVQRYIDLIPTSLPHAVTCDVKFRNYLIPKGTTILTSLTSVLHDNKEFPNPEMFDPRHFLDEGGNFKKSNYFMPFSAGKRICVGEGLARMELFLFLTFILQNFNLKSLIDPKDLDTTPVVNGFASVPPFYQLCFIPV

CYP2C9 [4] = biological target: CYP2C9 (Homo sapiens, UniProt P11712); details: with flurbiprofen, tolbutamide, and warfarin; cited from earlier work
CYP2C9 (Homo sapiens, UniProt P11712), sequence (P11712 whole entry): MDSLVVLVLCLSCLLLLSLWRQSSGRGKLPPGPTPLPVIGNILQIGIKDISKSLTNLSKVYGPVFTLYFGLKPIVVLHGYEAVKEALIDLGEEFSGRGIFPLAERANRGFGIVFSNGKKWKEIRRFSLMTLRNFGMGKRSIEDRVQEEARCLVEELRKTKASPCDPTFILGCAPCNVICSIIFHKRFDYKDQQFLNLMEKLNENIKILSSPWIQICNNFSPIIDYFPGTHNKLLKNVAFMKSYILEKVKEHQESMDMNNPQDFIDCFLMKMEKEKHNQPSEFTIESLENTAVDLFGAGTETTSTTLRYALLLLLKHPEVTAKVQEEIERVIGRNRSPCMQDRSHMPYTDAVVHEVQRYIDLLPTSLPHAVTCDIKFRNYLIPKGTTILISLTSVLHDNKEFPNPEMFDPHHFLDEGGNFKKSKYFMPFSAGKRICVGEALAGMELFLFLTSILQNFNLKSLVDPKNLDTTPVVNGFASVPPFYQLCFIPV

healthy subjects = assay: Safety and tolerability in the clinical study; details: Day 1 to Day 15, healthy subjects
CYP2C19 [5] = details: 25 mg b.i.d. for 6 days; cited from earlier work
CYP3A4 [6] = biological target: T1, CYP3A4; details: cited from earlier work
CYP2C19 [7] = biological target: T2, CYP2C19; assay: clinical; details: both, in vivo; for AUC(0-t) / half-life: geometric mean (95% CI); for half-life: t ½
[8] = Trt A, Day 1, cocktail alone, geometric mean (95% CI)
[9] = Trt B, Day 8, cocktail + initial 100 mg nivasorexant, geometric mean (95% CI)
[10] = Trt B, Day 8, cocktail + initial 100 mg nivasorexant
[11] = Trt D, Day 15, cocktail + nivasorexant at steady state, geometric mean (95% CI)
[12] = Trt D, Day 15, cocktail + nivasorexant at steady state
[13] = ratio of geometric means (90% CI)
[14] = ratio of geometric means (90% CI), nivasorexant steady state vs cocktail alone

OCc1ncc2n1-c1ccc(Cl)cc1C(c1ccccc1F)=NC2 [1‐OH midazolam, 1‐hydroxy (OH) midazolam]
AUC0–24 (CYP3A4 [1]; [8]): 8.50 (7.23–10.00) ng*h/mL
t ½ (CYP3A4 [1]; [8]): 2.27 (1.58–3.25) h
t max (CYP3A4 [1]; Trt A, Day 1, cocktail alone): 0.50 (0.50–3.00) h
AUC0–24 (CYP3A4 [1]; [9]): 8.64 (7.37–10.13) ng*h/mL
C max (CYP3A4 [1]; [9]): 4.12 (3.53–4.82) ng/mL
t ½ (CYP3A4 [1]; [9]): 2.94 (2.04–4.22) h
t max (CYP3A4 [1]; [10]): 0.75 (0.50–1.50) h
AUC0–24 (CYP3A4 [1]; [11]): 9.88 (8.02–12.18) ng*h/mL
t ½ (CYP3A4 [1]; [11]): 9.04 (6.82–11.97) h
t max (CYP3A4 [1]; [12]): 0.50 (0.50–1.50) h
t max median difference B–A (CYP3A4 [1]): 0.00 (0.000–0.13) h
t max median difference D–A (CYP3A4 [1]): 0.00 (−0.13–0.13) h
t ½ ratio Trt B/Trt A (CYP3A4 [1]): 1.29 [1.03–1.62]
t ½ ratio Trt D/Trt A (CYP3A4 [1]): 3.05 (2.03–4.58)
AUC0–24 ratio Trt B/Trt A (CYP3A4 [1]): 1.02 (0.96–1.08)
C max ratio Trt B/Trt A (CYP3A4 [1]): 1.02 (0.91–1.15)
t ½ ratio Trt B/Trt A (CYP3A4 [1]; listed as 1‐OH Midazolam): 1.29 (1.03–1.62)
AUC0–24 ratio Trt D/Trt A (CYP3A4 [1]): 1.15 (1.06–1.24)
C max ratio Trt D/Trt A (CYP3A4 [1]): 0.86 (0.75–0.98)

CC(C(=O)O)c1ccc(-c2ccc(O)cc2)c(F)c1 (stereo not shown) [4‐OH flurbiprofen, 4‐hydroxyflurbiprofen]
C max (CYP2C9 [2]; Trt A, Day 1, cocktail alone (flurbiprofen 50 mg), geometric mean (95% CI)): 316 (278–359) ng/mL
AUC0–24 (CYP2C9 [2]; [8]): 2516 (2280–2778) ng*h/mL
t ½ (CYP2C9 [2]; [8]): 7.85 (7.04–8.75) h
t max (CYP2C9 [2]; Trt A, Day 1, cocktail alone): 3.00 (1.50–6.00) h
AUC0–24 (CYP2C9 [2]; [9]): 2366 (2138–2618) ng*h/mL
C max (CYP2C9 [2]; [9]): 289 (259–322) ng/mL
t ½ (CYP2C9 [2]; [9]): 8.03 (7.28–8.87) h
t max (CYP2C9 [2]; [10]): 3.00 (1.50–6.02) h
AUC0–24 (CYP2C9 [2]; [11]): 1924 (1763–2099) ng*h/mL
t ½ (CYP2C9 [2]; [11]): 12.0 (10.0–14.3) h
t max (CYP2C9 [2]; [12]): 3.00 (1.50–6.00) h
t max median difference B–A (CYP2C9 [2]): 0.74 (−0.02–1.50) h
t max median difference D–A (CYP2C9 [2]): 0.50 (−0.04–1.00) h
t ½ ratio Trt B/Trt A (CYP2C9 [2]): 1.02 (0.97–1.09)
t ½ ratio Trt D/Trt A (CYP2C9 [2]): 1.54 (1.39–1.70)
AUC0–24 ratio Trt B/Trt A (CYP2C9 [2]): 0.94 (0.90–0.98)
C max ratio Trt B/Trt A (CYP2C9 [2]): 0.91 (0.87–0.96)
AUC0–24 ratio Trt D/Trt A (CYP2C9 [2]): 0.74 (0.70–0.79)
C max ratio Trt D/Trt A (CYP2C9 [2]): 0.53 (0.49–0.59)

COc1ccc2nc([S+]([O-])Cc3ncc(CO)c(OC)c3C)[nH]c2c1 (stereo not shown) [5‐OH omeprazole]
C max (CYP2C19 [3]; Trt A, Day 1, cocktail alone (omeprazole 20 mg)): 129 (110–151) ng/mL
AUC0–24 (CYP2C19 [3]; Trt A, Day 1, cocktail alone): 367 (332–406) ng*h/mL
t ½ (CYP2C19 [3]; Trt A, Day 1, cocktail alone): 1.34 (1.20–1.49) h
t max (CYP2C19 [3]; Trt A, Day 1, cocktail alone): 3.00 (1.00–6.00) h
AUC0–24 (CYP2C19 [3]; [10]): 338 (314–363) ng*h/mL
C max (CYP2C19 [3]; [10]): 97.0 (85.0–110.7) ng/mL
t ½ (CYP2C19 [3]; [10]): 1.53 (1.30–1.80) h
t max (CYP2C19 [3]; [10]): 3.49 (1.50–6.02) h
AUC0–24 (CYP2C19 [3]; [12]): 278 (253–305) ng*h/mL
t ½ (CYP2C19 [3]; [12]): 2.03 (1.79–2.32) h
t max (CYP2C19 [3]; [12]): 4.00 (1.50–10.00) h
t max median difference B–A (CYP2C19 [3]): 0.50 (0.00–1.16) h
t max median difference D–A (CYP2C19 [3]): 1.25 (0.75–2.00) h
t ½ ratio Trt B/Trt A (CYP2C19 [3]; [13]): 1.14 (0.99–1.32)
t ½ ratio Trt D/Trt A (CYP2C19 [3]; [13]): 1.50 (1.36–1.66)
AUC0–24 ratio Trt B/Trt A (CYP2C19 [3]; [13]): 0.92 (0.85–1.00)
C max ratio Trt B/Trt A (CYP2C19 [3]; [13]): 0.75 (0.66–0.86)
AUC0–24 ratio Trt D/Trt A (CYP2C19 [3]; [14]): 0.74 (0.67–0.82)

OC(Cn1cncn1)(Cn1cncn1)c1ccc(F)cc1F [fluconazole]
increase in AUC ratio of CYP2C9 probe substrates (CYP2C9 [4]): approximately two‐fold

CC(C(=O)O)c1ccc(-c2ccccc2)c(F)c1 (stereo not shown) [flurbiprofen]
Cmax (CYP2C9 [2]; both, human, in vivo, 50 mg, C max, Trt A, Day 1, cocktail alone (flurbiprofen 50 mg), geometric mean (95% CI)): 6410 ng/mL
t max (CYP2C9 [2]; both, human, in vivo, t max, Trt A, Day 1, cocktail alone): 2 h
t max (CYP2C9 [2]; both, human, in vivo, t max, Trt D, Day 15, cocktail + nivasorexant at steady state): 2.5 h
half-life (CYP2C9 [2]; both, human, in vivo, Trt A, Day 1, cocktail alone, geometric mean (95% CI)): 5.73 h
half-life (CYP2C9 [2]; both, human, in vivo, Trt D, Day 15, cocktail + nivasorexant at steady state, geometric mean (95% CI)): 7.89 h
t max median difference B–A (CYP2C9 [2]): 0.75 (0.00–1.51) h
t max median difference D–A (CYP2C9 [2]): 0.50 (−0.13–1.16) h
t ½ ratio Trt B/Trt A (CYP2C9 [2]): 1.11 (1.07–1.15)
t ½ ratio Trt D/Trt A (CYP2C9 [2]): 1.39 (1.31–1.47)
AUC0–24 ratio Trt B/Trt A (CYP2C9 [2]): 1.04
C max ratio Trt B/Trt A (CYP2C9 [2]): 0.97 (0.86–1.08)
AUC0–24 ratio Trt D/Trt A (CYP2C9 [2]): 1.47 and 1.5
C max ratio Trt D/Trt A (CYP2C9 [2]): 1.08 (0.97–1.20)
safety and tolerability (in words) (healthy subjects): safe and well tolerated

COCCCC/C(=N\OCCN)c1ccc(C(F)(F)F)cc1 [fluvoxamine]
increase in omeprazole exposure (CYP2C19 [5]): 5.6 fold

Cc1ncc2n1-c1ccc(Cl)cc1C(c1ccccc1F)=NC2 [midazolam]
t max (CYP3A4 [1]; Trt A, Day 1, cocktail alone): 0.75 (0.50–3.00) h
AUC0–24 (CYP3A4 [1]; [9]): 22.7 (19.5–26.5) ng*h/mL
AUC(0-t) (CYP3A4 [1]; AUC0–24, Trt A, Day 1, cocktail alone, geometric mean (95% CI)): 14.6 ng·h/mL
AUC(0-t) (CYP3A4 [1]; AUC0–24, Trt D, Day 15, cocktail + nivasorexant at steady state, geometric mean (95% CI)): 54.8 ng·h/mL
half-life (CYP3A4 [1]; [8]): 4.94 h
half-life (CYP3A4 [1]; [11]): 6.75 h
t max median difference B–A (CYP3A4 [1]): 0.00 (−0.13–0.13) h
t max median difference D–A (CYP3A4 [1]): 0.00 (−0.13–0.13) h
t ½ ratio Trt B/Trt A (CYP3A4 [1]): 1.67 (1.38–2.01)
t ½ ratio Trt D/Trt A (CYP3A4 [1]): 1.25 (1.07–1.46)
AUC0–24 ratio Trt B/Trt A (CYP3A4 [1]): 1.56 and 1.6
C max ratio Trt B/Trt A (CYP3A4 [1]): 1.34 (1.22–1.46)
AUC0–24 ratio Trt D/Trt A (CYP3A4 [1]): 3.71 and 3.7
C max ratio Trt D/Trt A (CYP3A4 [1]): 2.62 (2.31–2.97)
increase in midazolam AUC (CYP3A4 [6]; initial b.i.d. dosing with 200 mg nivasorexant): 1.8 fold
increase in midazolam AUC (CYP3A4 [6]; repeated b.i.d. dosing (over 10 days) with 200 mg nivasorexant): 4.5 fold
safety and tolerability (in words) (healthy subjects): safe and well tolerated

COc1ccc2[nH]c([S+]([O-])Cc3ncc(C)c(OC)c3C)nc2c1 (stereo not shown) [omeprazole]
Cmax (CYP2C19 [7]; 20 mg): 162 ng/mL
AUC(0-t) (CYP2C19 [7]; AUC0–24, Trt A, Day 1, cocktail alone): 372 ng·h/mL
AUC(0-t) (CYP2C19 [7]; AUC0–24, Trt D, Day 15, cocktail + nivasorexant at steady state): 2670 ng·h/mL
half-life (CYP2C19 [7]; Trt A, Day 1, cocktail alone): 0.99 h
half-life (CYP2C19 [7]; [12]): 1.99 h
t max (CYP2C19 [3]; Trt A, Day 1, cocktail alone): 3.00 (1.00–6.00) h
t max median difference B–A (CYP2C19 [3]): 0.5 h
t max median difference D–A (CYP2C19 [3]): 1.00 h
t max median difference B–A (CYP2C19 [3]; listed as Omeprazole): 0.50 (0.00–1.49) h
t max median difference D–A (CYP2C19 [3]; listed as Omeprazole): 1.00 (0.50–1.75) h
t ½ ratio Trt B/Trt A (CYP2C19 [3]; [13]): 1.46 (1.24–1.72)
t ½ ratio Trt D/Trt A (CYP2C19 [3]; [13]): 2.01 (1.69–2.40)
AUC0–24 ratio Trt B/Trt A (CYP2C19 [3]; [13]): 2.05 and 2.1
C max ratio Trt B/Trt A (CYP2C19 [3]; [13]): 1.60 (1.30–1.97)
AUC0–24 ratio Trt D/Trt A (CYP2C19 [3]; [14]): 6.84 and 6.8
C max ratio Trt D/Trt A (CYP2C19 [3]; [14]): 3.31 (2.55–4.28)
safety and tolerability (in words) (healthy subjects): safe and well tolerated
